Results: the supplement of paper PMC10307832

Legend:
Test in all cases: relative viability (nuclei count vs DMSO), 5 days (fraction); higher = more cells survive
Bexarotene + Decitabine = compound: C=C(c1ccc(C(=O)O)cc1)c1cc2c(cc1C)C(C)(C)CCC2(C)C [Bexarotene] + Nc1ncn([C@H]2C[C@H](O)[C@@H](CO)O2)c(=O)n1 [Decitabine] (partner 2 µM)
How it was run: (§1)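 One day after seeding in 1536-well plates, lung cancer cell lines were dosed by pin tool. Dosing was either single-drug or a fixed anchor-drug dose plus five library-drug doses (not always all listed) in √10 steps. After 5 days, nuclei were stained in one fix-and-stain step and counted on 4× images, and relative viability is the nuclei count of treated wells over that of vehicle wells, given as the median of duplicate plates.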

Bexarotene + Lapatinib = compound: C=C(c1ccc(C(=O)O)cc1)c1cc2c(cc1C)C(C)(C)CCC2(C)C [Bexarotene] + CS(=O)(=O)CCNCc1ccc(-c2ccc3ncnc(Nc4ccc(OCc5cccc(F)c5)c(Cl)c4)c3c2)o1 [Lapatinib] (partner 2 µM)
How it was run: as §1

Bexarotene + Tozasertib = compound: C=C(c1ccc(C(=O)O)cc1)c1cc2c(cc1C)C(C)(C)CCC2(C)C [Bexarotene] + Cc1cc(Nc2cc(N3CCN(C)CC3)nc(Sc3ccc(NC(=O)C4CC4)cc3)n2)n[nH]1 [Tozasertib] (partner 0.1 µM)
How it was run: as §1

Bexarotene + Crizotinib = compound: C=C(c1ccc(C(=O)O)cc1)c1cc2c(cc1C)C(C)(C)CCC2(C)C [Bexarotene] + C[C@@H](Oc1cc(-c2cnn(C3CCNCC3)c2)cnc1N)c1c(Cl)ccc(F)c1Cl [Crizotinib] (partner 1 µM)
How it was run: as §1

Cell Line	relative viability (Bexarotene + Decitabine; first compound 0.08 µM)	relative viability (Bexarotene + Decitabine; first compound 0.253 µM)	relative viability (Bexarotene + Decitabine; first compound 0.8 µM)	relative viability (Bexarotene + Decitabine; first compound 2.53 µM)	relative viability (Bexarotene + Decitabine; first compound 8 µM)	relative viability (Bexarotene + Lapatinib; first compound 0.08 µM)	relative viability (Bexarotene + Lapatinib; first compound 0.253 µM)	relative viability (Bexarotene + Lapatinib; first compound 0.8 µM)	relative viability (Bexarotene + Lapatinib; first compound 2.53 µM)	relative viability (Bexarotene + Lapatinib; first compound 8 µM)	relative viability (Bexarotene + Tozasertib; first compound 0.08 µM)	relative viability (Bexarotene + Tozasertib; first compound 0.253 µM)	relative viability (Bexarotene + Tozasertib; first compound 0.8 µM)	relative viability (Bexarotene + Tozasertib; first compound 2.53 µM)	relative viability (Bexarotene + Tozasertib; first compound 8 µM)	relative viability (Bexarotene + Crizotinib; first compound 0.08 µM)	relative viability (Bexarotene + Crizotinib; first compound 0.253 µM)	relative viability (Bexarotene + Crizotinib; first compound 0.8 µM)	relative viability (Bexarotene + Crizotinib; first compound 2.53 µM)	relative viability (Bexarotene + Crizotinib; first compound 8 µM)
LXF-289	0.381	0.3	0.293	0.313	0.323	1	1.07	1.04	1.07	1.03	0.166	0.196	0.213	0.137	0.141	0.901	0.994	1	0.979	0.973
NCI-H23	0.351	0.322	0.346	0.298	0.329	1.13	1.11	1.2	1.06	1.12	0.383	0.619	0.365	0.287	0.333	0.534	0.561	0.514	0.647	0.529
NCI-H322M	0.68	0.748	0.655	0.678	0.731	0.634	0.572	0.658	0.625	0.578	0.508	0.505	0.488	0.475	0.445	0.829	1.06	0.87	0.93	1.04
NCI-H358	0.212	0.216	0.184	0.222	0.185	0.461	0.464	0.483	0.574	0.535	0.0977	0.105	0.0984	0.108	0.121	0.541	0.603	0.497	0.66	0.49
NCI-H460	0.581	0.505	0.448	0.499	0.381	1.01	1.03	0.948	0.981	0.731	0.541	0.452	0.481	0.399	0.427	0.91	1.1	0.908	0.845	0.766
NCI-H520	0.499	0.473	0.552	0.52	0.51	1.12	0.793	0.577	0.875	0.71	0.409	0.454	0.411	0.417	0.382	0.989	0.735	0.649	0.775	0.659
NCI-H596	1.11	0.966	0.974	1.09	1.02	1.07	1	0.783	0.916	0.928	0.998	0.897	0.788	0.934	0.837	1.05	1.01	0.871	0.973	1.05
NCI-H647	0.439	0.394	0.412	0.419	0.335	1.33	1.17	1.19	1.24	0.964	0.351	0.432	0.257	0.279	0.324	1.38	1.18	1.19	1.12	0.912
NCI-H650	0.284	0.263	0.328	0.301	0.309	1.08	1.06	0.915	0.634	0.778	0.747	0.724	0.721	0.789	0.687	0.749	0.613	0.739	0.615	0.6
NCI-H661	0.606	0.542	0.559	0.509	0.496	0.432	0.554	0.477	0.516	0.513	0.387	0.357	0.348	0.355	0.341	0.866	1.13	1.02	0.96	1.04
NCI-H727	1.02	0.748	0.826	0.847	0.885	1.02	0.887	0.881	0.762	0.811	0.622	0.584	0.76	0.64	0.618	0.856	0.912	0.87	0.677	0.708
NCI-H838	0.521	0.423	0.499	0.515	0.445	1.05	1.19	0.974	1.14	1.03	0.269	0.301	0.267	0.278	0.271	0.929	0.884	0.891	0.843	0.866
NCI-H1355	0.379	0.332	0.416	0.388	0.346	1.02	1.1	0.898	1.1	0.936	0.492	0.531	0.54	0.492	0.512	1.14	1.11	1.03	1.14	1.13
NCI-H1437	0.592	0.581	0.556	0.564	0.51	0.975	0.893	0.759	0.9	0.778	0.382	0.395	0.396	0.421	0.382	0.92	0.959	0.918	0.922	0.909
NCI-H1650	0.447	0.453	0.438	0.403	0.45	0.813	0.707	0.871	0.659	0.745	0.483	0.541	0.55	0.397	0.419	0.842	0.927	0.788	1.04	0.777
NCI-H1651	0.77	0.548	0.66	0.638	0.618	1.08	0.968	0.887	0.862	0.753	0.929	0.64	0.741	0.594	0.791	0.936	0.89	0.952	0.968	0.893

Cell Line	relative viability (Bexarotene + Decitabine; first compound 0.08 µM)	relative viability (Bexarotene + Decitabine; first compound 0.253 µM)	relative viability (Bexarotene + Decitabine; first compound 0.8 µM)	relative viability (Bexarotene + Decitabine; first compound 2.53 µM)	relative viability (Bexarotene + Decitabine; first compound 8 µM)	relative viability (Bexarotene + Lapatinib; first compound 0.08 µM)	relative viability (Bexarotene + Lapatinib; first compound 0.253 µM)	relative viability (Bexarotene + Lapatinib; first compound 0.8 µM)	relative viability (Bexarotene + Lapatinib; first compound 2.53 µM)	relative viability (Bexarotene + Lapatinib; first compound 8 µM)	relative viability (Bexarotene + Tozasertib; first compound 0.08 µM)	relative viability (Bexarotene + Tozasertib; first compound 0.253 µM)	relative viability (Bexarotene + Tozasertib; first compound 0.8 µM)	relative viability (Bexarotene + Tozasertib; first compound 2.53 µM)	relative viability (Bexarotene + Tozasertib; first compound 8 µM)	relative viability (Bexarotene + Crizotinib; first compound 0.08 µM)	relative viability (Bexarotene + Crizotinib; first compound 0.253 µM)	relative viability (Bexarotene + Crizotinib; first compound 0.8 µM)	relative viability (Bexarotene + Crizotinib; first compound 2.53 µM)	relative viability (Bexarotene + Crizotinib; first compound 8 µM)
NCI-H1666	0.813	0.696	0.773	0.689	0.693	0.753	0.588	0.446	0.512	0.504	0.658	0.611	0.52	0.558	0.668	1.04	0.897	0.769	0.869	0.952
NCI-H1734	0.522	0.461	0.498	0.483	0.441	1.02	1.04	1.07	0.942	0.944	0.281	0.244	0.26	0.285	0.257	0.724	0.77	0.65	0.667	0.646
NCI-H1755	0.783	0.743	0.783	0.778	0.75	1.07	1.29	1.1	0.994	1.02	0.624	0.607	0.637	0.638	0.622	0.85	1.09	0.971	0.848	0.802
NCI-H1915	0.272	0.259	0.274	0.255	0.23	1.1	0.793	0.979	0.999	1.04	0.465	0.492	0.425	0.339	0.376	0.969	0.948	0.851	0.905	0.849
NCI-H1944	0.493	0.472	0.504	0.464	0.383	1.17	0.934	0.961	0.929	0.768	0.323	0.29	0.307	0.299	0.257	1.3	1.17	1.18	1.26	1.02
NCI-H1975	0.359	0.393	0.443	0.406	0.392	1.25	1.01	1	1.1	0.988	0.809	0.875	0.846	0.73	0.879	1.01	1.02	1.05	1.08	1.11
NCI-H1993	0.537	0.484	0.554	0.576	0.608	0.858	0.826	0.809	0.802	0.814	0.544	0.576	0.604	0.527	0.613	0.926	0.751	0.71	0.831	0.746
NCI-H2009	0.404	0.394	0.373	0.404	0.364	0.794	1.14	1.06	1.06	0.999	0.753	0.897	0.814	0.815	0.778	1.16	0.882	1.08	1.08	1.06
NCI-H2023	0.224	0.218	0.214	0.197	0.205	1.03	1.14	0.979	0.63	0.595	0.395	0.385	0.417	0.328	0.283	0.609	0.591	0.715	0.624	0.494
NCI-H2085	0.539	0.545	0.512	0.487	0.536	0.739	0.723	0.596	0.703	0.731	0.865	0.834	0.728	0.771	0.767	0.863	0.891	0.831	0.791	0.74
NCI-H2087	0.303	0.277	0.242	0.227	0.215	1.06	1.16	1.2	0.98	0.883	0.254	0.314	0.211	0.179	0.258	0.854	1.14	0.716	0.827	0.867
NCI-H2126	0.631	0.696	0.575	0.571	0.554	0.768	0.741	0.73	0.81	0.757	0.881	0.869	0.793	0.818	0.829	1.08	1.05	0.989	1.08	0.977
NCI-H2170	0.438	0.463	0.446	0.417	0.465	0.264	0.245	0.275	0.305	0.273	0.729	0.631	0.654	0.63	0.614	1.1	1.11	1.15	1.02	1.05
NCI-H2347	0.621	0.705	0.606	0.686	0.565	1.18	1.1	0.669	1.06	0.917	0.625	0.668	–	0.585	0.623	0.671	0.773	0.597	0.765	0.674
NCI-H2405	0.887	0.729	0.653	0.711	0.775	1.16	1.07	0.824	1.08	1.24	0.786	0.752	0.54	0.759	0.715	0.945	0.853	0.665	0.806	0.839
NCI-H3122	0.521	0.385	0.416	0.415	0.365	1.09	1.06	1.12	1.08	1.12	0.431	0.492	0.425	0.471	0.476	0.238	0.261	0.233	0.276	0.337
